According to US10329303B2, “Heterocyclic inhibitors of monocarboxylate transporter” (THE SCRIPPS RESEARCH INSTITUTE, priority 2015, dated 2019):
Entries after “also recorded” stand apart in the source; their conditions may differ.

How the values were obtained:
[1] = tested on: Raji (Burkitt's) lymphoma cells; assay: MTT assay for 4-day viability of Raji (Burkitt's) lymphoma cells; assay type: cell-based; conditions: Homo sapiens, 96 h, Raji cells (highly express MCT1), read-out: approximate potency (EC50)
Excerpt: Specific Examples 1-52 of compounds of the invention, with estimated EC50 values determined using an MTT assay for 4-day viability of Raji (Burkitt's) lymphoma cells, a cell line known to highly express MCT1 and to be sensitive to small molecule MCT inhibitors,^4 are shown in Table 2. Assay protocols follow those described in the literature.^4 Other assays that are not described here but that are standard in the field, such as an assay for competitive inhibition of transport of radiolabeled lactic acid, an MCT substrate, may also be useful in establishing mechanism of action of these compounds.

[2] = tested on: Raji Burkitt's lymphoma cells; assay: Mouse xenograft study, tumor volume and tumor weight; assay type: in vivo; conditions: Raji xenograft in mice, 30 mg/kg daily; for final tumor mass: tumor mass measured at day 29, relative to vehicle; for tumor growth over time (tumor volume): ~20 days of treatment, relative to vehicle
Protocol: (§1) Protocols follow those described in the literature.^4 Mice were transplanted with cultured tumor cells and, after an incubation period (typically 10 days), mice were left untreated or were treated daily with a 30 mg/kg dose of the test compound. Tumor volumes were measured with calipers over ˜20 days of treatment. Tumors were excised and weighed at the end of treatment. In two experiments using Raji Burkitt's lymphoma cells^4, the compounds studied were the product of example 9 (FIG. 3), code named SR-11105, and the product of example 21 (FIG. 4), code named SR-13779.

[3] = Mouse xenograft study, animal body weight; assay type: in vivo; conditions: Raji xenograft mice, 30 mg/kg daily, over the course of the study
Protocol: as §1

| Structure (SMILES) | EC50 [1] | further results |
| --- | --- | --- |
| Cc1n[nH]c(C)c1Cc1sc2c(c1-c1c(F)cc(F)c(CO)c1F)c(=O)n(C)c(=O)n2CC(C)C [Example 3, 6-((3,5-dimethyl-1H-pyrazol-4-yl)methyl)-1-isobutyl-3-methyl-5-(2,4,6-trifluoro-3-(hydroxymethyl)phenyl)thieno[2,3-d]pyrimidine-2,4(1H,3H)-dione] | 1000 to 10000 nM | – |
| Cc1n[nH]c(C)c1Cc1sc2c(c1-c1cncc(C(O)C(F)(F)F)c1)c(=O)n(C)c(=O)n2CC(C)C (centres unmarked) [Example 8, 6-((3,5-dimethyl-1H-pyrazol-4-yl)methyl)-1-isobutyl-3-methyl-5-(5-(2,2,2-trifluoro-1-hydroxyethyl)pyridin-3-yl)thieno[2,3-d]pyrimidine-2,4(1H,3H)-dione] | 34 nM | – |
| CC(C)Cc1nn(C)c(=O)c2c(-c3cc(CO)ccc3F)n(Cc3cccc4ccccc34)cc12 [Example 28, 7-(2-fluoro-5-(hydroxymethyl)phenyl)-4-isobutyl-2-methyl-6-(naphthalen-1-ylmethyl)-2,6-dihydro-1H-pyrrolo[3,4-d]pyridazin-1-one] | 40 nM | – |
| CC(C)Cc1nn(C)c(=O)c2c(-c3cccc(CO)c3F)n(Cc3cccc4ccccc34)cc12 [Example 29, 7-(2-fluoro-3-(hydroxymethyl)phenyl)-4-isobutyl-2-methyl-6-(naphthalen-1-ylmethyl)-2,6-dihydro-1H-pyrrolo[3,4-d]pyridazin-1-one] | 80 nM | – |
| Cc1n[nH]c(C)c1Cn1cc2c(CC(C)C)nn(C)c(=O)c2c1-c1cc(CO)ccc1F [Example 44, 6-((3,5-dimethyl-1H-pyrazol-4-yl)methyl)-7-(2-fluoro-5-(hydroxymethyl)phenyl)-4-isobutyl-2-methyl-2,6-dihydro-1H-pyrrolo[3,4-d]pyridazin-1-one] | 200 nM | – |
| CC(C)Cc1nn(C)c(=O)c2c(-c3cccc(C(O)C(F)(F)F)c3)n(Cc3cccc4ccccc34)cc12 (centres unmarked) [Example 40, 4-isobutyl-2-methyl-6-(naphthalen-1-ylmethyl)-7-(3-(2,2,2-trifluoro-1-hydroxyethyl)phenyl)-2,6-dihydro-1H-pyrrolo[3,4-d]pyridazin-1-one] | 50 nM | – |
| CC(C)Cc1nn(C)c(=O)c2c(-c3csc(C(O)C(F)(F)F)c3)n(Cc3cccc4ccccc34)cc12 (centres unmarked) [Example 38, 4-isobutyl-2-methyl-6-(naphthalen-1-ylmethyl)-7-(5-(2,2,2-trifluoro-1-hydroxyethyl)thiophen-3-yl)-2,6-dihydro-1H-pyrrolo[3,4-d]pyridazin-1-one] | ≤ 20 nM | – |
| CC(C)Cc1nn(C)c(=O)c2c(-c3cc(CO)ccc3F)n(Cc3ccc(-c4ccccc4)cc3)cc12 [Example 41, 6-([1,1′-biphenyl]-4-ylmethyl)-7-(2-fluoro-5-(hydroxymethyl)phenyl)-4-isobutyl-2-methyl-2,6-dihydro-1H-pyrrolo[3,4-d]pyridazin-1-one] | 800 nM | – |
| Cc1n[nH]c(C)c1Cc1sc2c(c1-c1cnc(F)c(CO)c1)c(=O)n(C)c(=O)n2CC(C)C [Example 4, 6-((3,5-dimethyl-1H-pyrazol-4-yl)methyl)-5-(6-fluoro-5-(hydroxymethyl)pyridin-3-yl)-1-isobutyl-3-methylthieno[2,3-d]pyrimidine-2,4(1H,3H)-dione] | 200 nM | – |
| Cc1n[nH]c(C)c1Cc1sc2c(c1-c1ccc(F)c(CO)c1F)c(=O)n(C)c(=O)n2CC(C)C [Example 7, 5-(2,4-difluoro-3-(hydroxymethyl)phenyl)-6-((3,5-dimethyl-1H-pyrazol-4-yl)methyl)-1-isobutyl-3-methylthieno[2,3-d]pyrimidine-2,4(1H,3H)-dione] | ≤ 20 nM | – |
| Cc1n[nH]c(C)c1Cc1sc2c(c1-c1cc(F)c(F)c(CO)c1)c(=O)n(C1CC1)c(=O)n2CC(C)C [Example 18, 3-cyclopropyl-5-(3,4-difluoro-5-(hydroxymethyl)phenyl)-6-((3,5-dimethyl-1H-pyrazol-4-yl)methyl)-1-isobutylthieno[2,3-d]pyrimidine-2,4(1H,3H)-dione] | 900 nM | – |
| Cc1n[nH]c(C)c1Cc1sc2c(c1-c1ccc(F)c(CO)c1)c(=O)n(C)c(=O)n2CC(C)C [Example 9, 6-((3,5-dimethyl-1H-pyrazol-4-yl)methyl)-5-(4-fluoro-3-(hydroxymethyl)phenyl)-1-isobutyl-3-methylthieno[2,3-d]pyrimidine-2,4(1H,3H)-dione] | ≤ 20 nM | final tumor mass [2]: significant reduction in final tumor mass; tumor growth over time (tumor volume) [2]: significant reduction of tumor growth rate; animal body weight [3]: maintained their body weight |
| Cc1n[nH]c(C)c1Cc1sc2c(c1-c1ccnc(CO)c1)c(=O)n(C)c(=O)n2CC(C)C [Example 10, 6-((3,5-dimethyl-1H-pyrazol-4-yl)methyl)-5-(2-(hydroxymethyl)pyridin-4-yl)-1-isobutyl-3-methylthieno[2,3-d]pyrimidine-2,4(1H,3H)-dione] | 90 nM | – |
| Cc1n[nH]c(C)c1Cn1cc2c(CC(C)C)nn(C)c(=O)c2c1-c1cccc(C(O)C(F)(F)F)c1 (centres unmarked) [Example 45, 6-((3,5-dimethyl-1H-pyrazol-4-yl)methyl)-4-isobutyl-2-methyl-7-(3-(2,2,2-trifluoro-1-hydroxyethyl)phenyl)-2,6-dihydro-1H-pyrrolo[3,4-d]pyridazin-1-one] | ≤ 20 nM | – |
| Cc1cc(CO)c(F)c(-c2c(Cc3c(C)n[nH]c3C)sc3c2c(=O)n(C2CC2)c(=O)n3CC(C)C)c1 [Example 17, 3-cyclopropyl-6-((3,5-dimethyl-1H-pyrazol-4-yl)methyl)-5-(2-fluoro-3-(hydroxymethyl)-5-methylphenyl)-1-isobutylthieno[2,3-d]pyrimidine-2,4(1H,3H)-dione] | 100 nM | – |
| CC(C)Cc1nn(C)c(=O)c2c(-c3csc(C(O)C(F)(F)F)n3)n(Cc3cccc4ccccc34)cc12 (centres unmarked) [Example 37, 4-isobutyl-2-methyl-6-(naphthalen-1-ylmethyl)-7-(2-(2,2,2-trifluoro-1-hydroxyethyl)thiazol-4-yl)-2,6-dihydro-1H-pyrrolo[3,4-d]pyridazin-1-one] | 100 nM | – |
| CC(C)Cc1nn(C)c(=O)c2c(-c3ncc(CO)s3)n(Cc3cccc4ccccc34)cc12 [Example 25, 7-(5-(hydroxymethyl)thiazol-2-yl)-4-isobutyl-2-methyl-6-(naphthalen-1-ylmethyl)-2,6-dihydro-1H-pyrrolo[3,4-d]pyridazin-1-one] | 300 nM | – |
| Cc1n[nH]c(C)c1Cc1sc2c(c1-c1ccc(F)c(CO)c1F)c(=O)n(C1CC1)c(=O)n2CC(C)C [Example 21, 3-cyclopropyl-5-(2,4-difluoro-3-(hydroxymethyl)phenyl)-6-((3,5-dimethyl-1H-pyrazol-4-yl)methyl)-1-isobutylthieno[2,3-d]pyrimidine-2,4(1H,3H)-dione] | ≤ 20 nM | final tumor mass ([2]; listed as SR-13779): significant reduction in final tumor mass; also recorded: more pronounced effect; tumor growth over time (tumor volume) [2]: effectively blocked tumor growth; animal body weight [3]: maintained their body weight |
| Cc1cc(CO)c(F)c(-c2c(Cc3c(C)n[nH]c3C)sc3c2c(=O)n(C)c(=O)n3CC(C)C)c1 [Example 2, 6-((3,5-dimethyl-1H-pyrazol-4-yl)methyl)-5-(2-fluoro-3-(hydroxymethyl)-5-methylphenyl)-1-isobutyl-3-methylthieno[2,3-d]pyrimidine-2,4(1H,3H)-dione] | 100 nM | – |
| CC(C)Cc1nn(C)c(=O)c2c(-c3cncc(CO)c3)n(Cc3cccc4ccccc34)cc12 [Example 32, 7-(5-(hydroxymethyl)pyridin-3-yl)-4-isobutyl-2-methyl-6-(naphthalen-1-ylmethyl)-2,6-dihydro-1H-pyrrolo[3,4-d]pyridazin-1-one] | 900 nM | – |
